Measured values published in patent publication US20210113522A1, “COUMARIN DERIVATIVE AS ANTI-ASTHMATIC AGENT, PHARMACEUTICAL COMPOSITION THEREOF, ITS PREPARATION AND USE” (I-NOVA MEDICINSKA ISTRAZIVANJA D.O.O., priority 2017, published 2021).

Columns and labels:
[1] = tested on: OVA-induced airway inflammation; experiment: OVA model: lung histology (haematoxylin/eosin); assay type: in vivo, Balb/c mice; details: OVA-challenged mice; 1 2 mg/kg preventively or therapeutically, beclomethasone 1 mg/kg
Method: Lungs from the Balb/c mice from the test-groups were isolated and fixed in 10% formalin with […] of the same solution introduced intratracheally prior the overnight fixation. Paraffin sections from the lungs were analyzed using a standard haematoxylin/eosin staining technique.
• (1) fix in Solution A (fixative); • (2) dip 5 times in Solution C (red); • (3) dip 5 times in Solution B (blue); • (4) rinse the slides in distilled water; • (5) air-drying of the slides; • (6) mounted the cover slides; and then • (7) 400 cells were counted under light microscopy. Histology Staining was then Performed as Follows: The lungs from all animals were fixed in 10% formalin (pH 7.4). Once fixed, tissue is processed as follows: • (1) 70% ethanol for 1 hour; • (2) 80% ethanol for 1 hour; • (3) 95% ethanol for 1 hour; • (4) first absolute ethanol for 1 hour; • (5) second absolute ethanol 1 hour; • (6) first clearing agent (xylene) for 1 hour; • (7) second clearing agent (xylene) for 1 hour; • (8) first wax at 58° C. for 1 hour; • (9) second wax at 58° C. for 1 hour; and • (10) embedding tissues in paraffin blocks. Tissues were sectioned using a microtome at 5 μm slices. […]

[2] = tested on: OVA-induced airway inflammation; experiment: OVA model of lung eosinophilia: differential cell count of bronchoalveolar lavage (BAL) cells; assay type: in vivo, Balb/c mice; details: vs PBS-treated OVA mice; 1 2 mg/kg preventively or therapeutically, beclomethasone 1 mg/kg, via the airway
Method: The study was performed on female 8-week old Balb/c mice. The animals were kept under specific-pathogen-free (SPF) conditions with temperature control and HEPA system for breeding of laboratory animals. Experiments were performed during the light phase of the cycle. 40 mice (n=10/group) were separated into 4 groups:
Group 1: OVA only Group 2: OVA+BECLOMETHASONE (1 mg/kg) Group 3: OVA+Compound 1 (preventively; 2 mg/kg) Group 4: OVA+Compound 1 (therapeutically; 2 mg/kg)
Each group of mice was sensitized on days 0 and 14 with 20 μg/mouse of OVA adsorbed on 2 mg alum. On days 20, 21 and 22 the animals were stimulated with 100 μg/mouse OVA intranasally in a final volume of 50 μL/mouse.
The first group (the positive control) was injected with 0.1 M phosphate-buffered saline (PBS) only.
The second and third groups were treated preventively with compound 1 (2 mg/kg) or beclomethasone (1 mg/kg) on days 18-22 via the airway.
The fourth group was treated therapeutically with compound 1 (2 mg/kg) on days 23-25 via the airway.
We examined the effect of compound 1 treatment in the cell response on OVA-induced airway inflammation. OVA (100 μg/50 μL of PBS) was introduced intranasally (i.n.) 6 days after the second intraperitoneal (i.p.) sensitization with OVA. The treatment with compound 1 (preventively and therapeutically), beclomethasone or PBS only was performed according the treatment schedule; see FIG. 2.
Two days after the last i.n. challenge, BAL cells were collected, and differential cell counts were performed to identify the number of various infiltrating inflammatory cells, see FIGS. 3A, 3B.
Female 8-week old Balb/c mice were obtained from Harlan Farm (Blackthorn, UK). The animals were kept under specific-pathogen-free (SPF) conditions with temperature control and HEPA system for breeding of laboratory animals. The manipulations were approved by the Animal Care Commission at the Institute of Microbiology in accordance with the International regulations (EU Directive 2010/63/EU).
Experiments were performed during the light phase of the cycle. The animals were allowed to adapt to the laboratory for at least 1 h before testing and were used only once. 40 mice (n=10/group) were separated into 4 groups:
Group 1: OVA only Group 2: OVA+beclomethasone (1 mg/kg) Group 3: OVA+compound 1 (preventively; 2 mg/kg) Group 4: OVA+compound 1 (therapeutically; 2 mg/kg)
The experimental procedure was carried out as described in literature reference 22. The procedure is as follows: • (1) using scissors, a small incision in the neck skin on the trachea was made and the skin upwards was opened to expose the salivary glands; the trachea was exposed; • (2) a small semi-excision of the trachea was made to allow a 21-G lavage tube to pass into the trachea; • (3) collection of the lavage fluid—0.5 mL of sterile PBS was injected into the lung. The saline from the first lavage was aspirate; the procedure was repeated 5 times; • (4) all lavages were pooled and were centrifuge for 5 min. at 300×g/4° C. to pellet the cells; the supernatant was discarded; • (5) the pellet was re-suspended in 1.5 mL ice cold PBS and centrifuge for 5 min. at 300×g/4° C.; the supernatant was discarded; • (6) the pellet was re-suspended in 1.0 mL ice cold PBS and the cells were counted; • (7) 50 000 cells were placed on the slide for cytospin; • (8) the cytrospin was performed for 10 min at 700 rpm; and • (9) the slides were air-dried and proceeded to cell staining.
• (1) fix in Solution A (fixative); • (2) dip 5 times in Solution C (red); • (3) dip 5 times in Solution B (blue); • (4) rinse the slides in distilled water; • (5) air-drying of the slides; • (6) mounted the cover slides; and then • (7) 400 cells were counted under light microscopy. Histology Staining was then Performed as Follows: The lungs from all animals were fixed in 10% formalin (pH 7.4). […]

## O=c1oc2cc(O)cc(O)c2c(O)c1-c1coc2c1c(=O)oc1cc(O)cc(O)c12 [Compound 1, 7,9-dihydroxy-3-(4,5,7-trihydroxy-2-oxo-2H-chromene-3-yl)-4H-furo[3,2-c]chromen-4-one]
[1]
  Eosinophil and other inflammatory cell infiltration in lung histology: not observed
[2]
  Eosinophil infiltration into the lungs (BAL): strongly suppressed
  Lymphocyte infiltration (BAL): stimulate
  Macrophages infiltration (BAL): stimulate
  Neutrophil infiltration (BAL): stimulate

## C[C@H]1C[C@H]2[C@@H]3CCC4=CC(=O)C=C[C@]4(C)[C@@]3(Cl)[C@@H](O)C[C@]2(C)[C@@]1(O)C(=O)CO [beclomethasone, reference compound]
[1]
  Eosinophil and other inflammatory cell infiltration in lung histology: not observed
[2]
  Eosinophil infiltration into the lungs (BAL): suppressed
  Lymphocyte infiltration (BAL): induced moderate
  Macrophages infiltration (BAL): induced moderate
  Neutrophil infiltration (BAL): suppressed
